The structures appear in SMILES notation.

Here are results for 3 compounds from patent US6864251B2, “Treatment of LTB4-mediated inflammatory disorders with optically-pure (R)-2,3-benzodiazepines” (Vela Pharmaceuticals, Inc., priority 2002, dated 2005).

Assay [1] concerns the target peripheral BZ receptors (Homo sapiens, UniProt P30536). The settings on record: cited from earlier work.
Assay [2] relates to central BZ receptors. The settings on record: cited from earlier work.
Assay [3] concerns lymphocyte. The settings on record: in vitro; cited from earlier work.
Assay [4] concerns IL-2 production. The settings on record: in vitro; cited from earlier work.
Assay [5] deals with LTB4 receptor (Cavia porcellus, UniProt H0VYV8). As to the kind of experiment: LTB4 binding assay, displacement of [3H]LTB4, guinea pig spleen membrane.
Chain of LTB4 receptor (H0VYV8 1-348): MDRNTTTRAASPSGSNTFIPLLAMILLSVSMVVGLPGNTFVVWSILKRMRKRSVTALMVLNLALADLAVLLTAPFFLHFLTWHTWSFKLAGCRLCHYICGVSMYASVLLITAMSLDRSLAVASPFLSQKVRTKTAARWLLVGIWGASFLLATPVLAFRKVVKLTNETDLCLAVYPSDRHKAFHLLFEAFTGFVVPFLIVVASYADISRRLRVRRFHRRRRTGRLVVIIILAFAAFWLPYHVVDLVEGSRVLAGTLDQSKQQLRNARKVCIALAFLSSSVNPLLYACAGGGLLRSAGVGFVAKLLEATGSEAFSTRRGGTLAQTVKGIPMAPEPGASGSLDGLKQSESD
Description: Reactions were carried out in a phosphate buffer (pH 7.4) containing NaCl, MgCl2, EDTA, and bacitracin. The reaction volume of 150 μL containing 1.0 mg/mL of the Guinea pig spleen membrane preparation and 1 nM [^3H]LTB4, with or without a competitor, was incubated at 0-4° C. for 2 hours. Competitors included 2,3-benzodiazepines, and LTB4 as a control. The reaction was terminated by rapid vacuum filtration onto glass fiber filters. The filter was washed with cold buffer, dried and placed in a scintillation vial. Radioactivity trapped onto the filters was determined and compared to control values in order to ascertain any interactions of the test compound with the LTB4 binding site.

Chain of peripheral BZ receptors (P30536 whole entry): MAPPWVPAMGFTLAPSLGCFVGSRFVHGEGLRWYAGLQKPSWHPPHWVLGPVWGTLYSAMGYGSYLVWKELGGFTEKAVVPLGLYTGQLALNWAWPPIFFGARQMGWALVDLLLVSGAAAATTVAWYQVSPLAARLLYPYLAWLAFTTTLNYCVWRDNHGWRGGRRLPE

One may read the Ki as the equilibrium dissociation constant of an inhibitor or competing ligand from its target. Read a low Ki as a stronger hold on the target. On to `CCC1C(C)=NN=C(c2ccc(OC)c(OC)c2)c2cc(OC)c(OC)cc21` (racemic) [Racemic tofisopam, Racemic-1-(3,4-dimethoxyphenyl)-4-methyl-5-ethyl-7,8-dimethoxy-5H-2,3-benzodiazepine], for which the “Binding to peripheral BZ receptors” value in assay [1] is on record as “binds only weakly”. Further, the “Interaction with central BZ receptors” value in assay [2] is “does not interact”. Besides, the Mitogen-induced lymphocyte proliferation result in assay [3] is on record as “enhances”. In assay [4], the IL-2 production result was “enhances”. In addition, the Ki in assay [5] turned out to be 4.52 µM.

With `CC[C@H]1C(C)=NN=C(c2ccc(OC)c(OC)c2)c2cc(OC)c(OC)cc21` [(R)-tofisopam, (R)-1-(3,4-dimethoxyphenyl)-4-methyl-5-ethyl-7,8-dimethoxy-5H-2,3-benzodiazepine], the affinity in assay [5], expressed as Ki, was 0.444 µM.

In turn, `CC[C@@H]1C(C)=NN=C(c2ccc(OC)c(OC)c2)c2cc(OC)c(OC)cc21` [(S)-tofisopam, (S)-1-(3,4-dimethoxyphenyl)-4-methyl-5-ethyl-7,8-dimethoxy-5H-2,3-benzodiazepine] returned a Ki in assay [5] of 76 µM.
